≈ marks a conversion by molar mass, not a printed value.
Key:
Format in all cases: functional
Bacillus cereus = experiment: Antibacterial activity against Bacillus cereus ATCC 11778
Enterococcus faecium = experiment: Antibacterial activity against vancomycin-resistant Enterococcus faecium ATCC 700221
Clostridium perfringens = experiment: Antibacterial activity against Clostridium perfringens ATCC 10388
Enterococcus faecalis = experiment: Antibacterial activity against vancomycin-resistant Enterococcus faecalis ATCC 51575
Staphylococcus aureus [1] = experiment: Antibacterial activity against methicillin-resistant Staphylococcus aureus ATCC 33591
Streptococcus pneumoniae = experiment: Antibacterial activity against Streptococcus pneumoniae ATCC 6301
Bacillus subtilis = experiment: Antibacterial activity against Bacillus subtilis ATCC 23857
[2] = system: Staphylococcus epidermidis; experiment: Antibacterial activity against Staphylococcus epidermidis ATCC 12228
Candida albicans = experiment: Antifungal activity against Candida albicans ATCC 90028
Staphylococcus aureus [3] = experiment: Antibacterial activity against Staphylococcus aureus ATCC 29213
Staphylococcus aureus [4] = experiment: Antibacterial activity against multidrug resistant Staphylococcus aureus BAA-39
[5] = system: Staphylococcus epidermidis; experiment: Antibacterial activity against methicillin-resistant Staphylococcus epidermidis ATCC 51625
Bacteroides fragilis = experiment: Antibacterial activity against […] ATCC 23745

SMILES | MIC (Bacillus cereus) [µg/mL] | MIC (Enterococcus faecium) [µg/mL] | MIC (Clostridium perfringens) [µg/mL] | MIC (Enterococcus faecalis) [µg/mL] | MIC (Staphylococcus aureus [1]) [µg/mL] | MIC (Streptococcus pneumoniae) [µg/mL] | MIC (Bacillus subtilis) [µg/mL] | MIC [2] [µg/mL] | MIC (Candida albicans) [µg/mL] | MIC (Staphylococcus aureus [3]) [µg/mL] | MIC (Staphylococcus aureus [4]) [µg/mL] | MIC [5] [µg/mL] | MIC (Bacteroides fragilis) [µg/mL]
CC1(C)S[C@@H]2[C@H](NC(=O)Cc3ccccc3)C(=O)N2[C@H]1C(=O)O [PENICILLIN G] | > 4 | > 32 | < 0.12 | 4 (≈ 12 µM) | > 32 | < 0.06 | < 0.06 | 32 (≈ 95.7 µM) | > 32 | 1 (≈ 2.99 µM) | > 32 | 32 (≈ 95.7 µM) | 4 (≈ 12 µM)
CCC(C)NC(=N)c1ccc2[nH]c(-c3ccc(Oc4ccc(-c5nc6cc(C(=N)NC(C)CC)ccc6[nH]5)cc4)cc3)nc2c1 (stereo not given) | < 0.06 | < 0.06 | 0.5 (≈ 0.835 µM) | 0.25 (≈ 0.418 µM) | 0.25 (≈ 0.418 µM) | < 0.06 | < 0.06 | 0.12 (≈ 0.2 µM) | 2 (≈ 3.34 µM) | 0.5 (≈ 0.835 µM) | 0.5 (≈ 0.835 µM) | 0.12 (≈ 0.2 µM) | 16 (≈ 26.7 µM)
COc1cc(Oc2ccc(-c3nc4cc(C(=N)NC(C)C)ccc4[nH]3)c(Cl)c2)ccc1-c1nc2cc(C(=N)NC(C)C)ccc2[nH]1 | 0.12 (≈ 0.189 µM) | ≤ 0.06 | 0.25 (≈ 0.394 µM) | 0.25 (≈ 0.394 µM) | 0.25 (≈ 0.394 µM) | ≤ 0.06 | ≤ 0.06 | ≤ 0.06 | 4 (≈ 6.3 µM) | 0.25 (≈ 0.394 µM) | 0.5 (≈ 0.787 µM) | ≤ 0.06 | > 32
O=C(O)c1cn(C2CC2)c2cc(N3CCNCC3)c(F)cc2c1=O [CIPROFLOXACIN] | ≤ 0.12 | > 64 |  | 0.5 (≈ 1.51 µM) | ≤ 0.12 |  | ≤ 0.12 | ≤ 0.12 |  | 0.5 (≈ 1.51 µM) | 8 (≈ 24.1 µM) | ≤ 0.12 | 0.5 (≈ 1.51 µM)
CC(C)NC(=N)c1ccc2[nH]c(-c3ccc(Oc4ccc(-c5nc6cc(C(=N)NC(C)C)ccc6[nH]5)cn4)cc3)nc2c1 | 0.12 (≈ 0.21 µM) | ≤ 0.06 | 2 (≈ 3.5 µM) | 0.25 (≈ 0.437 µM) | 0.5 (≈ 0.875 µM) | 0.12 (≈ 0.21 µM) | 0.25 (≈ 0.437 µM) | 0.12 (≈ 0.21 µM) | 2 (≈ 3.5 µM) | 1 (≈ 1.75 µM) | 1 (≈ 1.75 µM) | 0.12 (≈ 0.21 µM) | > 32
COc1cc(Oc2ccc(-c3nc4cc(C(=N)NC(C)C)ccc4[nH]3)cc2)ccc1-c1nc2cc(C(=N)NC(C)C)ccc2[nH]1 | 0.12 (≈ 0.2 µM) | ≤ 0.06 | 0.25 (≈ 0.416 µM) | 0.5 (≈ 0.832 µM) | 0.25 (≈ 0.416 µM) | ≤ 0.06 | ≤ 0.06 | ≤ 0.06 | 2 (≈ 3.33 µM) | 0.5 (≈ 0.832 µM) | 0.5 (≈ 0.832 µM) | 0.12 (≈ 0.2 µM) | > 32
CC1CCN(C(=N)c2ccc3[nH]c(-c4ccc(Oc5ccc(-c6nc7cc(C(=N)N8CCC(C)CC8)ccc7[nH]6)cc5)cc4)nc3c2)CC1 | < 0.06 | 0.25 (≈ 0.384 µM) | 1 (≈ 1.54 µM) | 0.5 (≈ 0.768 µM) | 0.25 (≈ 0.384 µM) | 0.12 (≈ 0.184 µM) | 0.12 (≈ 0.184 µM) | 0.12 (≈ 0.184 µM) | 4 (≈ 6.15 µM) | 0.25 (≈ 0.384 µM) | 0.25 (≈ 0.384 µM) | 0.12 (≈ 0.184 µM) | 4 (≈ 6.15 µM)
CCC(CC)NC(=N)c1ccc2[nH]c(-c3ccc(Oc4ccc(-c5nc6cc(C(=N)NC(CC)CC)ccc6[nH]5)cc4)cc3)nc2c1 | 0.5 (≈ 0.798 µM) | < 0.06 | 0.5 (≈ 0.798 µM) | 0.5 (≈ 0.798 µM) | 0.25 (≈ 0.399 µM) | < 0.06 | 0.12 (≈ 0.191 µM) | 0.12 (≈ 0.191 µM) | 4 (≈ 6.38 µM) | 0.25 (≈ 0.399 µM) | 0.5 (≈ 0.798 µM) | 0.25 (≈ 0.399 µM) | 4 (≈ 6.38 µM)
N=C(c1ccc2[nH]c(-c3ccc(Oc4ccc(-c5nc6cc(C(=N)N7CCC(N8CCCC8)CC7)ccc6[nH]5)cc4)cc3)nc2c1)N1CCC(N2CCCC2)CC1 | 1 (≈ 1.31 µM) | 2 (≈ 2.63 µM) | > 32 | 8 (≈ 10.5 µM) | 4 (≈ 5.26 µM) | > 32 | 4 (≈ 5.26 µM) | 1 (≈ 1.31 µM) | 16 (≈ 21 µM) | 8 (≈ 10.5 µM) | 4 (≈ 5.26 µM) | 1 (≈ 1.31 µM) | > 32
N=C(c1ccc2[nH]c(-c3ccc(Oc4ccc(-c5nc6cc(C(=N)N7CCCCC7)ccc6[nH]5)cc4)cc3)nc2c1)N1CCCCC1 | 0.25 (≈ 0.401 µM) | 0.12 (≈ 0.193 µM) | 0.25 (≈ 0.401 µM) | 0.25 (≈ 0.401 µM) | 0.12 (≈ 0.193 µM) | < 0.06 | < 0.06 | < 0.06 | 8 (≈ 12.8 µM) | 0.25 (≈ 0.401 µM) | 0.5 (≈ 0.803 µM) | 0.12 (≈ 0.193 µM) | 2 (≈ 3.21 µM)
CC(C)NC(=N)c1ccc2[nH]c(-c3ccc(Oc4ccc(-c5nc6cc(C(=N)NC(C)C)ccc6[nH]5)cc4)cc3)nc2c1 | < 0.06 | < 0.06 | 0.5 (≈ 0.876 µM) | 0.12 (≈ 0.21 µM) | 0.12 (≈ 0.21 µM) | < 0.06 | < 0.06 | < 0.06 | 1 (≈ 1.75 µM) | 0.25 (≈ 0.438 µM) | 0.5 (≈ 0.876 µM) | < 0.06 | 2 (≈ 3.5 µM)

— ChEMBL document CHEMBL1153072, “Synthesis and structure-activity relationship of dicationic diaryl ethers as novel potent anti-MRSA and anti-VRE agents” (2009)
